Assay results reported in PubChem BioAssay (NCI).
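In this assay, cells in 96-well plates receive the compound at five concentrations for 48 hours. Endpoints are linearly interpolated between the surrounding concentrations. GI50 marks 50% less growth. TGI denotes the concentration required for complete inhibition of growth.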

What was measured:
Assay in all cases: DTP human tumour cell line panel, 48 h; in the data active means GI50 below about 0.43 µM; inactive means the rest
U251 CNS = system: U251 CNS
NCI/ADR-RES ovarian = system: NCI/ADR-RES ovarian
TK-10 renal = system: TK-10 renal
HCT-15 colon = system: HCT-15 colon
UO-31 renal = system: UO-31 renal
NCI-H23 lung = system: NCI-H23 lung
SNB-19 CNS = system: SNB-19 CNS
SF-268 CNS = system: SF-268 CNS
BT-549 breast = system: BT-549 breast
CCRF-CEM leukemia = system: CCRF-CEM leukemia
RXF 393 renal = system: RXF 393 renal
KM12 colon = system: KM12 colon
RPMI-8226 leukemia = system: RPMI-8226 leukemia
NCI-H460 lung = system: NCI-H460 lung
HCT-116 colon = system: HCT-116 colon
HT29 colon = system: HT29 colon
NCI-H522 lung = system: NCI-H522 lung
HOP-62 NSCLC = system: HOP-62 NSCLC
LOX IMVI melanoma = system: LOX IMVI melanoma
UACC-62 melanoma = system: UACC-62 melanoma
MDA-MB-435 = system: MDA-MB-435
SF-295 CNS = system: SF-295 CNS
SW-620 colon = system: SW-620 colon
OVCAR-3 ovarian = system: OVCAR-3 ovarian
SK-MEL-2 melanoma = system: SK-MEL-2 melanoma
CAKI-1 renal = system: CAKI-1 renal
MALME-3M melanoma = system: MALME-3M melanoma
MDA-MB-231 breast = system: MDA-MB-231 breast
786-0 renal = system: 786-0 renal
EKVX NSCLC = system: EKVX NSCLC
UACC-257 melanoma = system: UACC-257 melanoma
T-47D breast = system: T-47D breast
HOP-92 NSCLC = system: HOP-92 NSCLC
K-562 leukemia = system: K-562 leukemia
OVCAR-8 ovarian = system: OVCAR-8 ovarian
DU-145 prostate = system: DU-145 prostate
SN12C renal = system: SN12C renal
SF-539 CNS = system: SF-539 CNS
COLO 205 colon = system: COLO 205 colon
SR leukemia = system: SR leukemia
A549 NSCLC = system: A549 NSCLC
MOLT-4 leukemia = system: MOLT-4 leukemia
OVCAR-4 ovarian = system: OVCAR-4 ovarian
OVCAR-5 ovarian = system: OVCAR-5 ovarian
SK-MEL-5 melanoma = system: SK-MEL-5 melanoma
A498 renal = system: A498 renal
PC-3 prostate = system: PC-3 prostate
HS 578T breast = system: HS 578T breast
SK-OV-3 ovarian = system: SK-OV-3 ovarian
MCF7 breast = system: MCF7 breast
SK-MEL-28 melanoma = system: SK-MEL-28 melanoma
M14 melanoma = system: M14 melanoma
ACHN renal = system: ACHN renal

CC[Si](CC)(CC)OC[C@]1([C@@H]2COC(C)(C)O2)CC=CC(=O)O1
91.8 µM: TGI (OVCAR-8 ovarian)
75.7 µM: TGI (A498 renal)
40 µM: TGI (SK-MEL-5 melanoma)
inactive: GI50 (U251 CNS) 42.2 µM | GI50 (NCI/ADR-RES ovarian) 32.1 µM | GI50 (TK-10 renal) 24.2 µM | GI50 (HCT-15 colon) 35.7 µM | GI50 (UO-31 renal) 34.8 µM | GI50 (NCI-H23 lung) 23.3 µM | GI50 (SNB-19 CNS) 34.7 µM | GI50 (SF-268 CNS) 41.5 µM | GI50 (BT-549 breast) 20.2 µM | GI50 (CCRF-CEM leukemia) 6.46 µM | GI50 (RXF 393 renal) 48 µM | GI50 (KM12 colon) 34.3 µM | GI50 (RPMI-8226 leukemia) 18.3 µM | GI50 (NCI-H460 lung) 33.9 µM | GI50 (HCT-116 colon) 39.5 µM | GI50 (HT29 colon) 46.8 µM | GI50 (NCI-H522 lung) 35.4 µM | GI50 (HOP-62 NSCLC) 57.8 µM | GI50 (LOX IMVI melanoma) 25 µM | GI50 (UACC-62 melanoma) 25.6 µM | GI50 (MDA-MB-435) 36.4 µM | GI50 (SF-295 CNS) 35.2 µM | GI50 (SW-620 colon) 39.1 µM | GI50 (OVCAR-3 ovarian) 32.6 µM | GI50 (SK-MEL-2 melanoma) 41.1 µM | GI50 (CAKI-1 renal) 33.6 µM | GI50 (MALME-3M melanoma) 18.1 µM | GI50 (MDA-MB-231 breast) 51.1 µM | GI50 (786-0 renal) 38.1 µM | GI50 (EKVX NSCLC) 31.5 µM | GI50 (UACC-257 melanoma) 32.2 µM | GI50 (T-47D breast) > 100 µM | GI50 (HOP-92 NSCLC) 19.7 µM | GI50 (K-562 leukemia) 34.6 µM | GI50 (OVCAR-8 ovarian) 26.4 µM | GI50 (DU-145 prostate) 82.9 µM | GI50 (SN12C renal) 31.1 µM | GI50 (SF-539 CNS) 34.5 µM | GI50 (COLO 205 colon) 40.4 µM | GI50 (SR leukemia) 23 µM | GI50 (A549 NSCLC) 30.4 µM | GI50 (MOLT-4 leukemia) 31.7 µM | GI50 (OVCAR-4 ovarian) 85.8 µM | GI50 (OVCAR-5 ovarian) > 100 µM | GI50 (SK-MEL-5 melanoma) 19 µM | GI50 (A498 renal) 20.9 µM | GI50 (PC-3 prostate) 41.5 µM | GI50 (HS 578T breast) 34.6 µM | GI50 (SK-OV-3 ovarian) 59.9 µM | GI50 (MCF7 breast) 43.6 µM | GI50 (SK-MEL-28 melanoma) 19.8 µM | GI50 (M14 melanoma) 33 µM | GI50 (ACHN renal) 42.8 µM
65.6 µM: TGI (RPMI-8226 leukemia)
81 µM: TGI (LOX IMVI melanoma)
79 µM: TGI (TK-10 renal)
85.3 µM: TGI (SK-MEL-28 melanoma)
95.1 µM: TGI (SR leukemia)
44.4 µM: TGI (MALME-3M melanoma)
71.2 µM: TGI (BT-549 breast)
> 100 µM: TGI (U251 CNS) | TGI (NCI/ADR-RES ovarian) | TGI (HCT-15 colon) | TGI (UO-31 renal) | TGI (NCI-H23 lung) | TGI (SNB-19 CNS) | TGI (SF-268 CNS) | TGI (CCRF-CEM leukemia) | TGI (RXF 393 renal) | TGI (KM12 colon) | TGI (NCI-H460 lung) | TGI (HCT-116 colon) | TGI (HT29 colon) | TGI (NCI-H522 lung) | TGI (HOP-62 NSCLC) | TGI (UACC-62 melanoma) | TGI (MDA-MB-435) | TGI (SF-295 CNS) | TGI (SW-620 colon) | TGI (OVCAR-3 ovarian) | TGI (SK-MEL-2 melanoma) | TGI (CAKI-1 renal) | TGI (MDA-MB-231 breast) | TGI (786-0 renal) | TGI (EKVX NSCLC) | TGI (UACC-257 melanoma) | TGI (T-47D breast) | TGI (HOP-92 NSCLC) | TGI (K-562 leukemia) | TGI (DU-145 prostate) | TGI (SN12C renal) | TGI (SF-539 CNS) | TGI (COLO 205 colon) | TGI (A549 NSCLC) | TGI (MOLT-4 leukemia) | TGI (OVCAR-4 ovarian) | TGI (OVCAR-5 ovarian) | TGI (PC-3 prostate) | TGI (HS 578T breast) | TGI (SK-OV-3 ovarian) | TGI (MCF7 breast) | TGI (M14 melanoma) | TGI (ACHN renal)
